According to article PMC11555526, “Development of 2-Aminoadenine-Based Proteolysis-Targeting Chimeras (PROTACs) as Novel Potent Degraders of Monopolar Spindle 1 and Aurora Kinases” (ACS Pharmacology & Translational Science, 2024):

Target: T1, AURKA (Homo sapiens, UniProt O14965)
T1 construct: endogenous in cells; host or cells: MV4-11 HiBiT-TTK cells (AURKA not transduced)
T1 sequence (O14965 1-403): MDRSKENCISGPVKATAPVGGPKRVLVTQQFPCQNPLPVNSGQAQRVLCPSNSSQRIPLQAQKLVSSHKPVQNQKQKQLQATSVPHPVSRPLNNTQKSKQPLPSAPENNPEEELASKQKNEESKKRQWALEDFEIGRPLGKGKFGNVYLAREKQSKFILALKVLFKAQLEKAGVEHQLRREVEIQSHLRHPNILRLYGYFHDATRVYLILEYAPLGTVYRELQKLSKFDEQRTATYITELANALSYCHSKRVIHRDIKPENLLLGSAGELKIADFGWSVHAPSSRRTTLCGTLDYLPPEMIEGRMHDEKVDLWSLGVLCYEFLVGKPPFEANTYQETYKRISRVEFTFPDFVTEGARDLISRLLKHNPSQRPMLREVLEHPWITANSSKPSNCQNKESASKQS
Test: Immunoblot of AURKA in HiBiT-TTK cells
Assay type: cell-based
Settings: 6 h
Experimental: The cells were treated with compounds or vehicle for indicated time points and lysed in RIPA lysis buffer (50 mM HEPES pH 7.9, 140 mM NaCl, 1 mM EDTA, 1% Triton X-100, 0.1% SDS, 0.1% sodium deoxycholate) containing protease and phosphatase inhibitors (Sigma) for 20 min at 4 °C. Cell lysates were cleared by centrifugation, and protein concentration was determined with bicinchoninic acid assay. Equal amounts of protein per sample were separated by Bis-Tris-PAGE and transferred to PVDF membranes (Millipore). The membranes were blocked with 5% (w/v) nonfat dry milk in TBS-T [20 mM Tris–HCl, pH 7.5, 150 mM NaCl, 0.1% (v/v) Tween-20] for 1 h at room temperature and incubated with primary antibody at 4 °C overnight. Visualization was carried out using horseradish peroxidase (HRP)-labeled secondary antibodies and detected using a chemiluminescent HRP substrate (Millipore) in LAS3000 or LAS4000 mini (Fujifilm). Vinculin, GAPDH, or B-actin were used as a loading control. […] The signal was quantified using ImageJ or Image Studio Lite against the corresponding loading controls. […]
Figure S2: Cellular degradation studies of SF1-based compounds. […] Indicated MV4-11 HiBiT cells were treated with different concentrations of 15 (B), and 28 (C) for 6 h, lysed, complemented with the large luciferase fragment (largeBiT), and luciferase 27 (A), activity was measured. […]

For `Cc1ncsc1-c1ccc(CNC(=O)[C@@H]2C[C@@H](O)CN2C(=O)[C@@H](NC(=O)COCCOCC(=O)N2CCN(c3ccc(Nc4nc(Nc5ccccc5S(=O)(=O)C(C)C)c5nc[nH]c5n4)cc3)CC2)C(C)(C)C)cc1` [Compound 49], the “relative AURKA level (immunoblot quantification, vehicle = 1.00)” value (0.16 µM) was 1.00 and the “relative AURKA level (immunoblot quantification, vehicle = 1.00)” value (10 µM) was 0.87.
